Results from patent US20260325559A1, “Immune Activator Agent” (Oryza Oil & Fat Chemical Co., Ltd., priority 2023, published 2026).

Assays:
[1] = system: iMylc® cells (immature myeloid cells induced by differentiation from iPS cells), IL-6 production; assay: IL-6 production activity in iMylc cells (immature dendritic cells); type: cell-based, human; conditions: 20 h, 37 °C, 5% CO2, DMSO 0.1% (v/v), ELISA of culture supernatant, FIG. 1
Method: In this experiment, iMylc® cells (immature myeloid cells induced by differentiation from iPS cells) purchased from Mycen Technologies Inc. were used. These cells were cultured and subjected to evaluation tests using the dedicated maintenance medium for iMylc® cells provided by Mycen Technologies Inc.
The iMylc® cells were seeded into 96-well plates (1.0×10^4 cells/well/100 μL). After adding 100 μL/well of medium containing the test substance, the cells were incubated for 20 hours at 37 °C under 5% CO2. The final concentration of DMSO was adjusted to 0.1% (v/v). After incubation, the amount of IL-6 produced in the culture supernatant was measured using a commercially available kit (Human IL-6 ELISA MAX™ Deluxe Set, BioLegend) in accordance with the manufacturer's instructions.

[2] = system: CD4-positive helper T cells (human PBMCs cocultured with αMylc® cells); assay: Mixed lymphocyte reaction (MLR), helper T cell proliferation induced by αMylc cells; type: cell-based; conditions: 10 μM; αMylc cells treated 24 h, MLR coculture 7 days; N=3; FIG. 5
Method: The test was conducted using a mixed lymphocyte reaction (MLR). In this method, αMylc® cells (derived from human peripheral blood) that had shown IL-6 production-promoting activity were treated with GlcCer[d18:2(4E,8Z)/18:0], GlcCer[t18:1(8Z)/20:0], GlcCer[d18:2(4E,8Z)/20:0], or GlcCer[d18:2(4E,8Z)/26:0] at concentrations of 1 or 10 μM for 24 hours.
During this period, peripheral blood mononuclear cells (PBMCs) isolated from human blood were labeled with the cell membrane-permeable dye carboxyfluorescein diacetate succinimidyl ester (CFDA-SE) by incubation for 7 minutes. After staining, αMylc® cells and PBMCs were mixed at a 1:2 ratio (2×10^4 cells: 4×10^4 cells) and cocultured for 7 days.
Subsequently, the mean fluorescence intensity (MFI) of CD4 (APC-stained; helper T cell marker) and CFDA (cell proliferation indicator) was quantified by flow cytometry (N=3). In the present MLR assay, the activation index was defined as the proliferation rate of helper T cells, and the gating strategy used in this analysis is shown in FIG. 4.

| SMILES | IL-6 production [1] | T-cell proliferation rate [2] |
| --- | --- | --- |
| CCCCCCCCCCCCCCCCCCCCC(O)C(=O)N[C@@H](CO)[C@H](O)[C@H](O)CCCCCCCCCCCCCC (stereo partly shown) [Cer[t18:0/22:0]] | significant activity |  |
| CCCCCCCCC/C=C\CC/C=C/[C@@H](O)[C@H](CO[C@@H]1O[C@H](CO)[C@@H](O)[C@H](O)[C@H]1O)NC(=O)[C@H](O)CCCCCCCCCCCCCCCCCCCCCCCC [GlcCer[d18:2(4E,8Z)/26:0]] | significant activity | a significant increase in T-cell proliferation rate |
| CCCCCCCCC/C=C\CCC[C@@H](O)[C@@H](O)[C@H](CO[C@@H]1OC(CO)[C@@H](O)[C@@H](O)C1O)NC(=O)[C@H](O)CCCCCCCCCCCCCCCCCC (stereo partly shown) [GlcCer[t18:1(8Z)/20:0]] | significant activity |  |
